Test results: US10858335B2 (Rigel Pharmaceuticals, Inc., priority 2014, dated 2020)

These molecules were tested on GDF8 signaling (p-SMAD-3 (Ser423/425)) (assay: AlphaScreen SureFire SMAD3 (p-Ser423/425) assay, GDF8-stimulated cells (GDF pSMAD)). Settings: Mus musculus, MPC-11, GDF8-stimulated pSMAD3, MPC11; tested as the salt form given; read-out: GDF pSMAD (MPC11) (μM), inhibition of GDF8 signaling.
Assay type: cell-based

**Q.** `Fc1ccc(Cl)cc1-c1ncccc1-c1ccc2ncnc(Nc3cn[nH]c3)c2c1` [compound 1033, 6-(2-(5-chloro-2-fluorophenyl)pyridin-3-yl)-N-(1H-pyrazol-4-yl)quinazolin-4-amine] was tested. Which IC50 did it give?
**A.** 1.58 µM

**Q.** Which IC50 does the source give for `CN(C)C(=O)Oc1cccc(-c2ncccc2-c2ccc3ncnc(N)c3c2)c1` [compound 979, 3-(3-(4-aminoquinazolin-6-yl)pyridin-2-yl)phenyl dimethylcarbamate] here?
**A.** 14 µM

**Q.** `c1cnc(-c2ccc3occc3c2)c(-c2ccc3ncsc3c2)c1` [compound 1073] was tested. Which IC50 did it give?
**A.** 0.48 µM

Same assay, conditions: Mus musculus, MPC-11, MPC11; GDF8-stimulated; p-SMAD3 AlphaScreen; read-out: GDF pSMAD (MPC11) (inhibition of GDF8 signaling)

**Q.** `CC(C)NC(=O)Nc1cnc(-c2cccc(C3CC3)c2)c(-c2ccc3[nH]ncc3c2)c1` [compound 213, 1-(6-(3-Cyclopropylphenyl)-5-(1H-indazol-5-yl)pyridin-3-yl)-3-isopropylurea] was tested. Which IC50 did it give?
**A.** 4.44 µM

**Q.** `O=c1nc[nH]c2ccc(-c3cccnc3-c3cccc(C4CC4)c3)cc12` [compound 362, 6-(2-(3-Cyclopropylphenyl)pyridin-3-yl)quinazolin-4(1H)-one] was tested. Which IC50 did it give?
**A.** 0.105 µM

**Q.** How did the IC50 turn out when `Nc1ncnc2ccc(-c3cccnc3-c3ccc(F)c(Cl)c3)nc12` [compound 964, 6-(2-(3-Chloro-4-fluorophenyl)pyridin-3-yl)pyrido[3,2-d]pyrimidin-4-amine] was run?
**A.** 0.232 µM

**Q.** How did the IC50 turn out when `Nc1ncnc2ccc(-c3cccnc3-c3ccc(F)cc3Cl)cc12` [compound 499, 6-(2-(2-Chloro-4-fluorophenyl)pyridin-3-yl)quinazolin-4-amine] was run?
**A.** 6.52 µM

**Q.** How did the IC50 turn out when `Cc1cccc(-c2ncccc2-c2ccc3nccc(N4CCOCC4)c3c2)c1` [compound 548, 4-(6-(2-(m-Tolyl)pyridin-3-yl)quinolin-4-yl)morpholine] was run?
**A.** 16.4 µM

**Q.** How did the IC50 turn out when `Cc1cc(-c2ncccc2-c2ccc3c(N)n[nH]c3c2)ccc1F` [compound 786, 6-(2-(4-Fluoro-3-methylphenyl)pyridin-3-yl)-1H-indazol-3-amine] was run?
**A.** 0.34 µM

**Q.** `Cc1cc(-c2ncccc2-c2ccc3cnc(C(=O)O)n3c2)ccc1F` [compound 257, 6-(2-(4-Fluoro-3-methylphenyl)pyridin-3-yl)imidazo[1,5-a]pyridine-3-carboxylic acid] was tested. Which IC50 did it give?
**A.** 1.84 µM

**Q.** How did the IC50 turn out when `Cn1cnc2ccc(-c3cccnc3-c3cc(Cl)ccc3Cl)cc21` [compound 870, 6-(2-(2,5-Dichlorophenyl)pyridin-3-yl)-1-methyl-1H-benzo[d]imidazole] was run?
**A.** 0.557 µM

**Q.** With `Cc1cccc(-c2ncccc2-c2ccc3ncn(CCCN4CCN(C)CC4)c3c2)c1` [compound 251, 1-(3-(4-Methylpiperazin-1-yl)propyl)-6-(2-m-tolylpyridin-3-yl)-1H-benzo[d]imidazole] as the molecule, how does the IC50 read?
**A.** 17.8 µM

**Q.** `CCc1cccc(-c2ncccc2-c2cnc3[nH]ncc3c2)c1` [Compound 151, 5-(2-(3-Ethylphenyl)pyridin-3-yl)-1H-pyrazolo[3,4-b]pyridine] was tested. Which IC50 did it give?
**A.** 0.678 µM

**Q.** How did the IC50 turn out when `Oc1ccc(-c2ncccc2-c2ccc3[nH]ncc3c2)cc1` [Compound 121, 4-(3-(1H-Indazol-5-yl)pyridin-2-yl)phenol] was run?
**A.** 5.35 µM

**Q.** How did the IC50 turn out when `Cc1cc(-c2ncccc2-c2ccn3c(C(=O)NCCCN(C)C)ncc3c2)ccc1F` [compound 267, N-(3-(Dimethylamino)propyl)-7-(2-(4-fluoro-3-methylphenyl)pyridin-3-yl)imidazo[1,5-a]pyridine-3-carboxamide] was run?
**A.** 6.76 µM

**Q.** How did the IC50 turn out when `c1cc(-c2ncccc2-c2ccn3nccc3n2)cc(C2CC2)c1` [compound 912, 5-(2-(3-Cyclopropylphenyl)pyridin-3-yl)pyrazolo[1,5-a]pyrimidine] was run?
**A.** 0.112 µM

**Q.** `OCc1cccc(-c2ncccc2-c2ccc3[nH]ncc3c2)c1` [Compound 91, [3-(3-(1H-Indazol-5-yl)pyridin-2-yl)phenyl]methanol] was tested. Which IC50 did it give?
**A.** 3.03 µM

**Q.** `Cc1cc(-c2ncccc2-c2ccn3c(C(=O)NCCCN4CCCC4)ncc3c2)ccc1F` [compound 278, 7-(2-(4-Fluoro-3-methylphenyl)pyridin-3-yl)-N-(3-(pyrrolidin-1-yl)propyl)imidazo[1,5-a]pyridine-3-carboxamide] was tested. Which IC50 did it give?
**A.** 2.23 µM

**Q.** How did the IC50 turn out when `Cc1cc(-c2ncccc2-c2ccc3ncnc(Nc4ccc(C#N)cc4)c3c2)ccc1F` [compound 409, 4-((6-(2-(4-Fluoro-3-methylphenyl)pyridin-3-yl)quinazolin-4-yl)amino)benzonitrile] was run?
**A.** 7.95 µM

**Q.** With `FC(F)(F)c1cnc2ccc(-c3cccnc3-c3cccc(C4CC4)c3)cn12` [compound 556, 6-(2-(3-Cyclopropylphenyl)pyridin-3-yl)-3-(trifluoromethyl)imidazo[1,2-a]pyridine] as the molecule, how does the IC50 read?
**A.** 0.363 µM

**Q.** For `Cc1cc(-c2ncccc2-c2cnc3cn[nH]c3c2)ccc1F` [Compound 138, 6-(2-(4-Fluoro-3-methylphenyl)pyridin-3-yl)-1H-pyrazolo[4,3-b]pyridine], which IC50 is on record?
**A.** 4.33 µM

**Q.** How did the IC50 turn out when `Cc1cc(-c2ncccc2-c2ccc3ncn(C)c3c2)ccc1F` [Compound 187, 6-(2-(4-Fluoro-3-methylphenyl)pyridin-3-yl)-1-methyl-1H-benzo[d]imidazole] was run?
**A.** 0.228 µM

**Q.** How did the IC50 turn out when `Cc1cc(-c2ncccc2-c2ccc3ncnc(OCC#N)c3c2)ccc1F` [compound 430, 2-((6-(2-(4-Fluoro-3-methylphenyl)pyridin-3-yl)quinazolin-4-yl)oxy)acetonitrile] was run?
**A.** 0.475 µM

**Q.** `Cc1cc(-c2ncccc2-c2ccc3ncc(C(C)O)n3c2)ccc1F` (racemic) [compound 598, rac-1-(6-(2-(4-Fluoro-3-methylphenyl)pyridin-3-yl)imidazo[1,2-a]pyridin-3-yl)ethan-1-ol] was tested. Which IC50 did it give?
**A.** 2.05 µM

**Q.** Which IC50 does the source give for `CC(=O)NCCNC(=O)c1cnc2ccc(-c3cccnc3-c3ccc(F)c(C)c3)cn12` [compound 815, N-(2-Acetamidoethyl)-6-(2-(4-fluoro-3-methylphenyl)pyridin-3-yl)imidazo[1,2-a]pyridine-3-carboxamide] here?
**A.** 0.941 µM

**Q.** How did the IC50 turn out when `Cc1cc(-c2ncc(Nc3ccc(C(N)=O)cc3)cc2-c2ccc3ncsc3c2)ccc1F` [compound 310, 4-((5-(Benzo[d]thiazol-6-yl)-6-(4-fluoro-3-methylphenyl)pyridin-3-yl)amino)benzamide] was run?
**A.** 1.14 µM

**Q.** With `Cn1cnc2ccc(-c3cccnc3-c3cccc(C4CC4)c3)cc2c1=O` [compound 342, 6-(2-(3-Cyclopropylphenyl)pyridin-3-yl)-3-methylquinazolin-4(3H)-one] as the molecule, how does the IC50 read?
**A.** 0.106 µM

**Q.** How did the IC50 turn out when `Cc1cccc(-c2ncccc2-c2ccn3nccc3n2)c1` [compound 911, 5-(2-(m-Tolyl)pyridin-3-yl)pyrazolo[1,5-a]pyrimidine] was run?
**A.** 0.0939 µM

**Q.** For `Clc1cccc(-c2ncccc2-c2ccc3nccnc3n2)c1` [compound 739, 6-(2-(3-Chlorophenyl)pyridin-3-yl)pyrido[2,3-b]pyrazine], which IC50 is on record?
**A.** 2.32 µM

**Q.** For `N#Cc1cccc(-c2ncccc2-c2cnc3cn[nH]c3c2)c1` [Compound 141, 3-(3-(1H-Pyrazolo[4,3-b]pyridin-6-yl)pyridin-2-yl)benzonitrile], which IC50 is on record?
**A.** 18.6 µM

**Q.** `Cc1cc(-c2ncccc2-c2ccc3cnc(N)nc3c2)ccc1F` [compound 396, 7-(2-(4-Fluoro-3-methylphenyl)pyridin-3-yl)quinazolin-2-amine] was tested. Which IC50 did it give?
**A.** 0.208 µM

**Q.** Which IC50 does the source give for `Cc1c(-c2cccnc2-c2cccc(Cl)c2)ccc2ncnn12` [compound 811, 6-(2-(3-Chlorophenyl)pyridin-3-yl)-5-methyl-[1,2,4]triazolo[1,5-a]pyridine] here?
**A.** 2.92 µM

**Q.** For `CNC(=O)c1cnc2ccc(-c3cccnc3-c3ccc(F)c(C)c3)cn12` [compound 584, 6-(2-(4-Fluoro-3-methylphenyl)pyridin-3-yl)-N-methylimidazo[1,2-a]pyridine-3-carboxamide], which IC50 is on record?
**A.** 0.0962 µM

**Q.** Which IC50 does the source give for `Cc1cccc(-c2ncccc2-c2ccc3ncn(C)c3c2)c1` [Compound 186, 1-methyl-6-(2-m-tolylpyridin-3-yl)-1H-benzo[d]imidazole] here?
**A.** 0.3 µM

**Q.** Which IC50 does the source give for `Cc1cc(-c2ncccc2-c2ccn3c(C(=O)NCCN4CCN(C)CC4)ncc3c2)ccc1F` [compound 265, 7-(2-(4-Fluoro-3-methylphenyl)pyridin-3-yl)-N-(2-(4-methylpiperazin-1-yl)ethyl)imidazo[1,5-a]pyridine-3-carboxamide] here?
**A.** 8.12 µM

**Q.** `Cc1cc(-c2ncc(-c3cccc(O)c3)cc2-c2ccc3ncsc3c2)ccc1F` [compound 343, 3-(5-(Benzo[d]thiazol-6-yl)-6-(4-fluoro-3-methylphenyl)pyridin-3-yl)phenol] was tested. Which IC50 did it give?
**A.** 2.64 µM

**Q.** `Clc1cccc(-c2ncccc2-c2ccc3nccn3c2)c1` [compound 698, 6-(2-(3-Chlorophenyl)pyridin-3-yl)imidazo[1,2-a]pyridine] was tested. Which IC50 did it give?
**A.** 0.145 µM

**Q.** `c1cc(-c2ncccc2-c2ccn3cncc3c2)cc(C2CC2)c1` [compound 596, 7-(2-(3-Cyclopropylphenyl)pyridin-3-yl)imidazo[1,5-a]pyridine] was tested. Which IC50 did it give?
**A.** 0.204 µM

**Q.** `Cc1cccc(-c2nc(N)ccc2-c2ccc3ncsc3c2)c1` [Compound 29, 5-(Benzo[d]thiazol-6-yl)-6-m-tolylpyridin-2-amine] was tested. Which IC50 did it give?
**A.** 1.45 µM

**Q.** `COc1ncnc2ccc(-c3cccnc3-c3cc(Cl)c(F)cc3F)cc12` [compound 821, 6-(2-(5-Chloro-2,4-difluorophenyl)pyridin-3-yl)-4-methoxyquinazoline] was tested. Which IC50 did it give?
**A.** 2.16 µM

**Q.** For `Nc1ncnc2ccc(-c3cccnc3-c3cccc(O)c3)cc12` [compound 456, 3-(3-(4-Aminoquinazolin-6-yl)pyridin-2-yl)phenol], which IC50 is on record?
**A.** 0.299 µM

**Q.** With `Cc1cc(-c2ncccc2-c2ccc3ncc(C(=O)NCCCO)n3c2)ccc1F` [compound 704, 6-(2-(4-Fluoro-3-methylphenyl)pyridin-3-yl)-N-(3-hydroxypropyl)imidazo[1,2-a]pyridine-3-carboxamide] as the molecule, how does the IC50 read?
**A.** 0.281 µM

**Q.** For `Cc1cc(-c2ncccc2-c2ccc3ncc(C(=O)NCCCN4CCCC4=O)n3c2)ccc1F` [compound 612, 6-(2-(4-Fluoro-3-methylphenyl)pyridin-3-yl)-N-(3-(2-oxopyrrolidin-1-yl)propyl)imidazo[1,2-a]pyridine-3-carboxamide], which IC50 is on record?
**A.** 0.408 µM

**Q.** With `NC(=O)c1ccnc2ccc(-c3cccnc3-c3cc(Cl)ccc3F)cc12` [compound 849, 6-(2-(5-Chloro-2-fluorophenyl)pyridin-3-yl)quinoline-4-carboxamide] as the molecule, how does the IC50 read?
**A.** 18.1 µM

**Q.** How did the IC50 turn out when `Cc1cccc(-c2nc(N)ccc2-c2ccc3[nH]ncc3c2)c1` [Compound 23, 5-(1H-Indazol-5-yl)-6-m-tolylpyridin-2-amine] was run?
**A.** 2.25 µM
